Laboratory results from patent US4594347A, “Pyrrolo [3,2,1-ij]-quinoline carboxylic acid compound” (Otsuka Pharmaceutical Co. Limited, priority 1983, dated 1986).

Experiments:
[1] = system: Staphylococcus aureus FDA 209P; assay: Antimicrobial test in vitro (MIC, agar plate dilution method); assay type: cell-based; set-up: unit not given here; details: S. aureus FDA 209P
Procedure: (§1) The antimicrobial activities of the following test compounds were tested by measuring the minimum inhibitory concentration (MIC) by an agar plate dilution method [cf. Chemotherapy, 22, 1126-1128 (1974)]. The test microorganisms were used in a concentration of 1×10^8 cells/ml (optical dencity (O.D.) at 660 m: 0.07-0.16) and 1×10^6 cells/ml (dilution: 100 folds).
A: Staphylococcus aureus FDA 209P

[2] = system: Streptococcus pyogenes II D S-23; assay: as above; assay type: cell-based; set-up: unit not given here; details: S. pyogenes II D S-23
Procedure: as §1
B: Streptococcus pyogenes II D S-23

[3] = system: Escherichia coli NIHJ JC-2; assay: as above; assay type: cell-based; set-up: unit not given here; details: E. coli NIHJ JC-2
Procedure: as §1
C: Escherichia coli NIHJ JC-2

Escherichia coli No. 29 = assay: as above; assay type: cell-based; set-up: unit not given here; details: E. coli No. 29
Procedure: as §1
D: Escherichia coli No. 29

[4] = system: Klebsiella pneumoniae NCTC 9632; assay: as above; assay type: cell-based; set-up: unit not given here; details: K. pneumoniae NCTC 9632
Procedure: as §1
E: Klebsiella pneumoniae NCTC 9632

Proteus mirabilis 1287 = assay: as above; assay type: cell-based; set-up: unit not given here; details: P. mirabilis 1287
Procedure: as §1
F: Proteus mirabilis 1287

[5] = system: Proteus morganii II D Kono; assay: as above; assay type: cell-based; set-up: unit not given here; details: P. morganii II D Kono
Procedure: as §1
G: Proteus morganii II D Kono

[6] = system: Serratia marcescens IFO 12648; assay: as above; assay type: cell-based; set-up: unit not given here; details: S. marcescens IFO 12648
Procedure: as §1
H: Serratia marcescens IFO 12648

[7] = system: Acinetobacter calcoaceticus AC-54; assay: as above; assay type: cell-based; set-up: unit not given here; details: A. calcoaceticus AC-54
Procedure: as §1
I: Acinetobacter calcoaceticus AC-54

[8] = system: Pseudomonas aeruginosa ATCC 10145; assay: as above; assay type: cell-based; set-up: unit not given here; details: P. aeruginosa ATCC 10145
Procedure: as §1
J: Pseudomonas aeruginosa ATCC 10145

[9] = system: Pseudomonas aeruginosa E-2; assay: as above; assay type: cell-based; set-up: unit not given here; details: P. aeruginosa E-2
Procedure: as §1
K: Pseudomonas aeruginosa E-2

[10] = Measurement of concentration of compounds in urine; assay type: in vivo; details: male rats, oral 25 mg/kg, 0-24 hours
Procedure: (§2) The same Test Compound 1 as used in the above Test 1 was orally administered in a dose of 25 mg/kg to three male rats (weighing 190-242 g), and blood and urine were collected from the animals at intervals. The concentration of the test compound in the collected urine and blood was measured by a thin layer plate cup (6 ml medium/.phi.90 mm shall) method wherein Bacillus subtilis ATCC 6633 was used as a test microorganism and a sensitive medium (manufactured by Eiken Kagaku K.K., Japan) was used as a medium. The results are shown in Table 2 (the concentration in urine) and in Table 3 (the concentration in blood), respectively.

[11] = Measurement of concentration of compounds in blood; assay type: in vivo; details: rat, male rats, oral 25 mg/kg
Procedure: as §2

[12] = system: Pseudomonas aeruginosa E-2; assay: Therapeutic effects of compounds in urinary infectious diseases in vivo; set-up: species or system JCL:S.D. female rats; details: E2, 96 h, female S.D. rats, bladder infection, oral at 6, 24 and 48 hours, urine and kidney colonies after 4 days, Probit method, read-out: 50% effective dose (ED50)
Procedure: Pseudomonas aeruginosa E-2 was cultured in a nutrient medium at 37° C. for 18 hours and the culture broth thus obtained was diluted with the same medium to prepare a solution of the microorganism (cell concentration: 10^7 cells/ml). To the solution were dipped a UV-sterilized disc [glyceryl monomyristate (manufactured by Nikko Chemicals, Japan) and sodium cetylsulfurate (manufactured by Nikko Chemicals, Japan) in a weight ratio of 9:1; diameter: 2.0 mm, length: 3.0 mm] under ice-cooling for 1.5 hour to give a microorganism-containing disc for inoculation.
The above-prepared disc was surgically inserted into the bladder of JCL:S.D. female rats (one group: four rats) anaesthetized with secobarbital sodium. After the animals have been infected with the microorganism, i.e. 6 hours after the insertion of the disc, 1% oxamide-containing feed and water were administered to the animals. The oxamide-containing feed was changed to a normal feed after 24 hours. Test compounds 1, 7 and 8 as used in Test 1 (in the form of a 0.5% CMC suspension) were each orally administered to the animals in a dose of 16 mg/kg, 8.0 mg/kg, 4.0 mg/kg, 2.0 mg/kg, and 1.0 mg/kg at 6, 24 and 48 hours after the insertion of disc. After 4 days from the infection, urine was collected and further the kidney was taken out from the animals, and then the presence of microorganism was checked as to the collected urine and kidney. That is, 0.1 ml of the urine was applied onto an agar plate medium and cultured at 37° C. for 18 hours, and the number of colonies was counted. Besides, the taken out kidney was divided into two, and the plain section was contacted to an agar plate medium, and the medium was cultured likewise, and the number of colonies was counted, likewise. When the number of colonies was less than 10, it was evaluated as "effective," and when the number of colonies was more than 10, it was evaluated as "ineffective". […]

minimum inhibitory concentration (MIC) ([1]; 1×10^6 cells/ml): 0.2
minimum inhibitory concentration (MIC) ([1]; 1×10^8 cells/ml): 0.39
minimum inhibitory concentration (MIC) ([2]; 1×10^6 cells/ml): 3.13
minimum inhibitory concentration (MIC) ([2]; 1×10^8 cells/ml): 3.13
minimum inhibitory concentration (MIC) ([3]; 1×10^6 cells/ml): 0.05
minimum inhibitory concentration (MIC) ([3]; 1×10^8 cells/ml): 0.1
minimum inhibitory concentration (MIC) (Escherichia coli No. 29; 1×10^6 cells/ml): 0.1
minimum inhibitory concentration (MIC) (Escherichia coli No. 29; 1×10^8 cells/ml): 0.1
minimum inhibitory concentration (MIC) ([4]; 1×10^6 cells/ml): 0.2
minimum inhibitory concentration (MIC) ([4]; 1×10^8 cells/ml): 0.2
minimum inhibitory concentration (MIC) (Proteus mirabilis 1287; 1×10^6 cells/ml): 0.39
minimum inhibitory concentration (MIC) (Proteus mirabilis 1287; 1×10^8 cells/ml): 0.78
minimum inhibitory concentration (MIC) ([5]; 1×10^6 cells/ml): 0.2
minimum inhibitory concentration (MIC) ([5]; 1×10^8 cells/ml): 0.39
minimum inhibitory concentration (MIC) ([6]; 1×10^6 cells/ml): 0.2
minimum inhibitory concentration (MIC) ([6]; 1×10^8 cells/ml): 0.2
minimum inhibitory concentration (MIC) ([7]; 1×10^6 cells/ml): 0.39
minimum inhibitory concentration (MIC) ([7]; 1×10^8 cells/ml): 0.39
minimum inhibitory concentration (MIC) ([8]; 1×10^6 cells/ml): 0.78
minimum inhibitory concentration (MIC) ([8]; 1×10^8 cells/ml): 1.56
minimum inhibitory concentration (MIC) ([9]; 1×10^6 cells/ml): 0.78
minimum inhibitory concentration (MIC) ([9]; 1×10^8 cells/ml): 1.56
Recovered amount in urine [10]: 1471.6 µg
dose excreted at 24 h ([10]; rat, urine, read-out: Recovery rate in urine): 27.2%
concentration at 0.5 h ([11]; 0.5 hour after the administration): 3190 ng/mL
concentration at 1 h ([11]; 1 hour after the administration): 2490 ng/mL
concentration at 2 h ([11]; 2 hours after the administration): 1920 ng/mL
concentration at 4 h ([11]; 4 hours after the administration): 900 ng/mL
concentration at 6 h ([11]; 6 hours after the administration): 600 ng/mL
concentration at 8 h ([11]; 8 hours after the administration): 310 ng/mL
SMILES: CC1Cc2c(N3CCN(C)CC3)c(F)c(N)c3c(=O)c(C(=O)O)cn1c23 (stereo not shown) [Compound 1, 8-fluoro-2-methyl-9-(4-methyl-1-piperazinyl)-7-amino-6-oxo-1,2-dihydro-pyrrolo[3,2,1-ij]quinoline-5-carboxylic acid]
ED50 [12]: 1.53 mg/kg
